System: strains of Enterobacteriaceae producing various carbapenemases (class A, D and B; 104 strains)
Experiment: Antibiotics potentiation by Compound 27 (MIC; meropenem, doripenem, ertapenem, cefepime)
Format: cell-based
Conditions: + 27 = with Compound 27 at fixed 4 μg/ml

COc1ccc2c(c1C(=O)O)OB(O)C(Sc1nnc(N)s1)C2 (centres unmarked) [M + 27]
MIC (strain CF1012 Citrobacter freundii (KPC-2)): X (MIC of less than 1 μg/mL) | MIC (strain CF1021 Citrobacter freundii (CMY-type; VIM-1)): X (MIC of less than 1 μg/mL) | MIC (strain CF1022 Citrobacter freundii (SHV-12(2be), TEM-OSBL(2b); IMP-8)): X (MIC of less than 1 μg/mL) | MIC (strain CF1023 Citrobacter freundii (SHV-12(2be), TEM-OSBL(2b); CTX-M-3; CMY-34; NDM-1)): X (MIC of less than 1 μg/mL) | MIC (strain CL1080 Enterobacter cloacae (IMP-1)): X (MIC of less than 1 μg/mL) | MIC (strain EA1019 Enterobacter aerogenes (SHV-5, VIM-1)): X (MIC of less than 1 μg/mL) | MIC (strain EC1007 Escherichia coli (KPC-3)): X (MIC of less than 1 μg/mL) | MIC (strain EC1061 Escherichia coli (NDM-1, CMY-6)): X (MIC of less than 1 μg/mL) | MIC (strain EC1062 Escherichia coli (OXA-48, CTX-M-15)): X (MIC of less than 1 μg/mL) | MIC (strain EC1064 Escherichia coli (NDM-1, CMY-6, CTX-M-15)): Y (MIC of 1 μg/mL to 10 μg/mL) | MIC (strain EC1065 Escherichia coli (IMP-1)): X (MIC of less than 1 μg/mL) | MIC (strain EC1068 Escherichia coli (VIM-1)): X (MIC of less than 1 μg/mL) | MIC (strain EC1069 Escherichia coli (CTX-M-27; NDM-1)): X (MIC of less than 1 μg/mL) | MIC (strain EC1070 Escherichia coli (TEM-OSBL(2b); CMY-42; NDM-5)): X (MIC of less than 1 μg/mL) | MIC (strain EC1072 Escherichia coli (CTX-M-3; NDM-1)): X (MIC of less than 1 μg/mL) | MIC (strain ECL1004 Enterobacter cloacae (NMC-A)): X (MIC of less than 1 μg/mL) | MIC (strain ECL1026 Enterobacter cloacae (KPC-2, TEM-1)): X (MIC of less than 1 μg/mL) | MIC (strain ECL1036 Enterobacter cloacae (KPC-3, TEM-1)): X (MIC of less than 1 μg/mL) | MIC (strain ECL1045 Enterobacter cloacae (VIM-1)): X (MIC of less than 1 μg/mL) | MIC (strain ECL1055 Enterobacter cloacae (KPC-3, TEM)): X (MIC of less than 1 μg/mL) | MIC (strain ECL1057 Enterobacter cloacae (NDM-1, TEM-1, CTX-M-15)): Z (MIC of greater than 10 μg/mL) | MIC (strain ECL1058 Enterobacter cloacae (KPC-3, SHV-11, TEM-1)): X (MIC of less than 1 μg/mL) | MIC (strain ECL1059 Enterobacter cloacae (KPC-3, SHV-12, TEM-1)): X (MIC of less than 1 μg/mL) | MIC (strain ECL1061 Enterobacter cloacae (KPC-3, Hyper AmpC expression)): X (MIC of less than 1 μg/mL) | MIC (strain ECL1082 Enterobacter cloacae (VIM-1)): X (MIC of less than 1 μg/mL) | MIC (strain ECL1084 Enterobacter cloacae (CTX-M-15; ACT-16; NDM-1)): X (MIC of less than 1 μg/mL) | MIC (strain ECL1085 Enterobacter cloacae (SHV-31(2be), TEM-1(2b); CTX-M-15; NDM-1)): X (MIC of less than 1 μg/mL) | MIC (strain ECL1086 Enterobacter cloacae (VIM-31, OXA-48(c))): X (MIC of less than 1 μg/mL) | MIC (strain ECL1087 Enterobacter cloacae (VIM-1)): X (MIC of less than 1 μg/mL) | MIC (strain ECL1088 Enterobacter cloacae (TEM-1(2b); CTX-M-14; ACT-type; VIM-1)): X (MIC of less than 1 μg/mL) | MIC (strain ECL1089 Enterobacter cloacae (ACT-type; IMP-1)): Y (MIC of 1 μg/mL to 10 μg/mL) | MIC (strain ECL1090 Enterobacter cloacae (TEM-1(2b); CTX-M-22; ACT-type; IMP-8)): X (MIC of less than 1 μg/mL) | MIC (strain ECL1091 Enterobacter cloacae (VIM-1)): X (MIC of less than 1 μg/mL) | MIC (strain ECL1092 Enterobacter cloacae (TEM-OSBL(2b); ACT-32; VIM-1)): X (MIC of less than 1 μg/mL) | MIC (strain ECL1093 Enterobacter cloacae (TEM-OSBL(2b); ACT-32; VIM-1)): X (MIC of less than 1 μg/mL) | MIC (strain ECL1094 Enterobacter cloacae (VIM-1)): X (MIC of less than 1 μg/mL) | MIC (strain ECL1096 Enterobacter cloacae (CMY-4, VIM-4, OXA-48(c))): X (MIC of less than 1 μg/mL) | MIC (strain ECL1097 Enterobacter cloacae (SHV-31(2be), TEM-OSBL(2b); CTX-M-15; ACT-31; NDM-1)): X (MIC of less than 1 μg/mL) | MIC (strain ECL1098 Enterobacter cloacae (TEM-OSBL(2b); DHA-1; ACT-16; NDM-1)): X (MIC of less than 1 μg/mL) | MIC (strain KP1001 Klebsiella pneumoniae (KPC TEM SHV)): Y (MIC of 1 μg/mL to 10 μg/mL) | MIC (strain KP1002 Klebsiella pneumoniae (KPC TEM SHV)): X (MIC of less than 1 μg/mL) | MIC (strain KP1003 Klebsiella pneumoniae (KPC TEM SHV)): X (MIC of less than 1 μg/mL) | MIC (strain KP1004 Klebsiella pneumoniae (KPC-2, TEM-1, SHV-11)): X (MIC of less than 1 μg/mL) | MIC (strain KP1008 Klebsiella pneumoniae (KPC-2)): X (MIC of less than 1 μg/mL) | MIC (strain KP1014 Klebsiella pneumoniae (VIM-1, TEM, SHV)): X (MIC of less than 1 μg/mL) | MIC (strain KP1054 Klebsiella pneumoniae (VIM-1, SHV-11)): X (MIC of less than 1 μg/mL) | MIC (strain KP1059 Klebsiella pneumoniae (VIM-1, SHV-11)): Y (MIC of 1 μg/mL to 10 μg/mL) | MIC (strain KP1061 Klebsiella pneumoniae (KPC-3, SHV-11, TEM-1)): X (MIC of less than 1 μg/mL) | MIC (strain KP1064 Klebsiella pneumoniae (KPC-2, SHV-11, TEM-1)): Y (MIC of 1 μg/mL to 10 μg/mL) | MIC (strain KP1065 Klebsiella pneumoniae (VIM-1, SHV-11)): X (MIC of less than 1 μg/mL) | MIC (strain KP1070 Klebsiella pneumoniae (KPC-2, SHV-11, TEM-1)): X (MIC of less than 1 μg/mL) | MIC (strain KP1074 Klebsiella pneumoniae (KPC-3, SHV-11, TEM)): Z (MIC of greater than 10 μg/mL) | MIC (strain KP1081 Klebsiella pneumoniae (NDM-1, TEM-1, SHV-11, CMY-6, CTX-M-15)): X (MIC of less than 1 μg/mL) | MIC (strain KP1082 Klebsiella pneumoniae (KPC-2, SHV-1)): X (MIC of less than 1 μg/mL) | MIC (strain KP1083 Klebsiella pneumoniae (KPC-3, SHV-1, TEM-1)): X (MIC of less than 1 μg/mL) | MIC (strain KP1084 Klebsiella pneumoniae (KPC-3, SHV-11, TEM-1)): Y (MIC of 1 μg/mL to 10 μg/mL) | MIC (strain KP1086 Klebsiella pneumoniae (OXA-48, CTX-M-15, TEM, SHV)): Y (MIC of 1 μg/mL to 10 μg/mL) | MIC (strain KP1087 Klebsiella pneumoniae (KPC-2, CTX-M-15, SHV-11, TEM-1)): Y (MIC of 1 μg/mL to 10 μg/mL) | MIC (strain KP1088 Klebsiella pneumoniae (KPC-3, SHV-11, TEM-1)): X (MIC of less than 1 μg/mL) | MIC (strain KP1089 Klebsiella pneumonias (OXA-181, CTX-M-15, TEM, SHV)): X (MIC of less than 1 μg/mL) | MIC (strain KP1095 Klebsiella pneumoniae (KPC-2 TEM-1 SHV-1)): X (MIC of less than 1 μg/mL) | MIC (strain KP1096 Klebsiella pneumoniae (KPC-2 TEM-181 SHV-11)): X (MIC of less than 1 μg/mL) | MIC (strain KP1097 Klebsiella pneumonias (IMP-1)): X (MIC of less than 1 μg/mL) | MIC (strain KP1098 Klebsiella pneumoniae (IMP-26)): Y (MIC of 1 μg/mL to 10 μg/mL) | MIC (strain KP1104 Klebsiella pneumoniae (KPC TEM)): X (MIC of less than 1 μg/mL) | MIC (strain KP1105 Klebsiella pneumoniae (KPC TEM SHV)): X (MIC of less than 1 μg/mL) | MIC (strain KP1159 Klebsiella pneumoniae (SHV-1(2b); CTX-M-15; IMP-4)): X (MIC of less than 1 μg/mL) | MIC (strain KP1160 Klebsiella pneumoniae (SHV-28(2be); CTX-M-15; IMP-26)): X (MIC of less than 1 μg/mL) | MIC (strain KP1161 Klebsiella pneumoniae (NDM-1)): X (MIC of less than 1 μg/mL) | MIC (strain KP1164 Klebsiella pneumoniae (SHV-12(2be); VIM-1)): X (MIC of less than 1 μg/mL) | MIC (strain KP1165 Klebsiella pneumoniae (SHV-11(2b); CTX-M-15; VIM-27)): Z (MIC of greater than 10 μg/mL) | MIC (strain KP1166 Klebsiella pneumoniae (SHV-5(2be); VIM-26)): Y (MIC of 1 μg/mL to 10 μg/mL) | MIC (strain KP1167 Klebsiella pneumoniae (SHV-12(2be); VIM-1)): X (MIC of less than 1 μg/mL) | MIC (strain KP1169 Klebsiella pneumoniae (SHV-11(2b); VIM-1)): X (MIC of less than 1 μg/mL) | MIC (strain KP1170 Klebsiella pneumoniae (SHV-11(2b); CTX-M-15; NDM-1)): X (MIC of less than 1 μg/mL) | MIC (strain KP1172 Klebsiella pneumoniae (SHV-31(2be); DHA-1; VIM-1)): X (MIC of less than 1 μg/mL) | MIC (strain KP1173 Klebsiella pneumoniae (TEM-33(2br); CTX-M-15; IMP-1)): X (MIC of less than 1 μg/mL) | MIC (strain KP1174 Klebsiella pneumoniae (CTX-M-14; IMP-1)): X (MIC of less than 1 μg/mL) | MIC (strain KP1175 Klebsiella pneumoniae (SHV-OSBL(2b); VIM-1)): X (MIC of less than 1 μg/mL) | MIC (strain KP1177 Klebsiella pneumoniae (SHV-OSBL(2b), TEM-OSBL(2b); CTX-M-15; NDM-1)): X (MIC of less than 1 μg/mL) | MIC (strain KP1178 Klebsiella pneumoniae (SHV-OSBL(2b;) TEM-OSBL(2b); CTX-M-15; NDM-1)): X (MIC of less than 1 μg/mL) | MIC (strain KP1179 Klebsiella pneumoniae (SHV-12(2be), TEM-OSBL(2b); CTX-M-15; NDM-7)): X (MIC of less than 1 μg/mL) | MIC (strain KP1180 Klebsiella pneumoniae (SHV-OSBL(2b), TEM-OSBL(2b); CTX-M-15; DHA-1; IMP-26)): X (MIC of less than 1 μg/mL) | MIC (strain KP1181 Klebsiella pneumoniae (SHV-OSBL(2b); CTX-M-15; IMP-26)): X (MIC of less than 1 μg/mL) | MIC (strain KP1183 Klebsiella pneumoniae (SHV-OSBL(2b), TEM-OSBL(2b); CTX-M-15; NDM-1)): X (MIC of less than 1 μg/mL) | MIC (strain KP1184 Klebsiella pneumoniae (SHV-OSBL(2b); IMP-1)): X (MIC of less than 1 μg/mL) | MIC (strain KP1185 Klebsiella pneumoniae (SHV-OSBL(2b), TEM-OSBL(2b); IMP-4)): Y (MIC of 1 μg/mL to 10 μg/mL) | MIC (strain KP1186 Klebsiella pneumoniae (CTX-M-15; NDM-1)): X (MIC of less than 1 μg/mL) | MIC (strain KP1187 Klebsiella pneumoniae (SHV-55(2be), TEM-OSBL(2b); CTX-M-15; NDM-1)): X (MIC of less than 1 μg/mL) | MIC (strain KP1188 Klebsiella pneumoniae (SHV-OSBL(2b); CTX-M-15; NDM-1)): Y (MIC of 1 μg/mL to 10 μg/mL) | MIC (strain KP1189 Klebsiella pneumoniae (TEM-OSBL(2b); CTX-M-15; CTX-M-27; NDM-1)): X (MIC of less than 1 μg/mL) | MIC (strain KPM1123 Klebsiella pneumoniae (KPC-2 TEM SHV)): X (MIC of less than 1 μg/mL) | MIC (strain KPM1202 Klebsiella pneumoniae (KPC SHV TEM)): X (MIC of less than 1 μg/mL) | MIC (strain KPM1203 Klebsiella pneumoniae (KPC SHV TEM)): X (MIC of less than 1 μg/mL) | MIC (strain KPM1344 Klebsiella pneumoniae (VIM-1)): X (MIC of less than 1 μg/mL) | MIC (strain KPM1345 Klebsiella pneumoniae (VIM-1 SHV)): X (MIC of less than 1 μg/mL) | MIC (strain KPM1347 Klebsiella pneumoniae (NDM-1 SHV CTX-M-15)): X (MIC of less than 1 μg/mL) | MIC (strain KX1017 Klebsiella oxytoca (KPC-2, OXA-2, SHV-30)): X (MIC of less than 1 μg/mL) | MIC (strain KX1018 Klebsiella oxytoca (KPC-2, SHV-40, OXY-1)): X (MIC of less than 1 μg/mL) | MIC (strain KX1019 Klebsiella oxytoca (KPC-2, OXA-2)): X (MIC of less than 1 μg/mL) | MIC (strain PM1024 Proteus mirabilis (TEM-1(2b); CMY-16; VIM-1)): X (MIC of less than 1 μg/mL) | MIC (strain PM1026 Proteus mirabilis (DHA-1; IMP-26)): X (MIC of less than 1 μg/mL) | MIC (strain PM1027 Proteus mirabilis (VIM-5)): X (MIC of less than 1 μg/mL) | MIC (strain SM1023 Serratia marcescens (VIM-4)): Y (MIC of 1 μg/mL to 10 μg/mL)

— patent publication US10206937B2, “Boronic acid derivatives and therapeutic uses thereof” (Qpex Biopharma, Inc., priority 2014, dated 2019)
